From patent publication US20230265151A1, “GIP/GLP1 CO-AGONIST COMPOUNDS” (priority 2020, published 2023) come the findings set out here.

Where two headings read alike, the source gives them in different places.

Assay [1] addresses T1, hGIPR (Homo sapiens, UniProt P48546).
T1 construct: expressed in transfected cells
T1 sequence (P48546 22-466): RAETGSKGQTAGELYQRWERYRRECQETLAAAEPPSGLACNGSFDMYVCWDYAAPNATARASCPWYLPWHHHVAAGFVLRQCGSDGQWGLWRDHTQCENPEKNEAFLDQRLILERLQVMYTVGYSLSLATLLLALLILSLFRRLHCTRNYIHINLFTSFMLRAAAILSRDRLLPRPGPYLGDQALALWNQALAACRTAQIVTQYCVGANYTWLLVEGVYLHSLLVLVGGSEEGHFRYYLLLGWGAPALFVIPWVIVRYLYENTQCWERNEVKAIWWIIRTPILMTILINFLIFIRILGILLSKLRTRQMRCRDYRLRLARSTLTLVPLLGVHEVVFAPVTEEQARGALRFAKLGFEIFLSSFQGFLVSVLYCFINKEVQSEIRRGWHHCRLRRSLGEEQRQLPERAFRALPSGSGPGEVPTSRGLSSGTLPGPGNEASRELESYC
Nature of the assay: Functional cAMP formation (HTRF) in HEK-293 clonal cells expressing hGIPR, 0.1% bovine casein, without or with 1.0% human serum albumin. It is filed as cell-based. As to conditions: for EC50: cAMP, 0.1% bovine casein (no human serum albumin), geometric mean. The gist of the method:
(§1)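 Readings of the HTRF 665/620 nm ratio, which falls as cAMP rises, were converted to nM cAMP using a standard curve after 30 min peptide exposure at 37° C.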

The target in assay [2] is T2, hGCGR (Homo sapiens, UniProt P47871).
T2 construct: expressed in transfected cells
T2 sequence (P47871 26-477): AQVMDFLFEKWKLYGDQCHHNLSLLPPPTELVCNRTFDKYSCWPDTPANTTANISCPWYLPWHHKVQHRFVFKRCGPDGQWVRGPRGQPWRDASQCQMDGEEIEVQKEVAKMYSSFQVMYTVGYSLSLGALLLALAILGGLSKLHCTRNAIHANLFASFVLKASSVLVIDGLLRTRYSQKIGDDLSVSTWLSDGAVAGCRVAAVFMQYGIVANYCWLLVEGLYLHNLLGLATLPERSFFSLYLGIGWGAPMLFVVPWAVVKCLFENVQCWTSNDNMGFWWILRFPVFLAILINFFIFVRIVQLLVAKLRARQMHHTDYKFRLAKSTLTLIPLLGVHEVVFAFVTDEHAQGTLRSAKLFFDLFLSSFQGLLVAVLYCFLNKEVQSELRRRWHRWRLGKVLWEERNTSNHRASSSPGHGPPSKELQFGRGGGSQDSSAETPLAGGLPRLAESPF
The assay can be described thus: Functional cAMP formation (HTRF) in HEK-293 clonal cells expressing hGCGR, 0.1% bovine casein, without or with 1.0% human serum albumin. It is filed as cell-based. An outline of the steps:
as §1

The mark [3] stands for this setting: HEK293, percent of maximal response to GIP(1-42)NH2, 37° C., 0.1% bovine casein, arithmetic mean, read-out: hGIPR Emax, % ± SEM.
[4] abbreviates: cAMP, incubated at 37° C., 0.1% bovine casein (no human serum albumin), geometric mean, read-out: hGCGR EC50, nM (SEM, n).
Setting [5] is: hGCGR EC50, nM (SEM, n), cAMP, 37° C., 0.1% bovine casein (no human serum albumin), geometric mean.

As to `CC[C@H](C)[C@H](NC(=O)[C@H](CC(C)C)NC(=O)[C@](C)(Cc1ccc(O)cc1)NC(=O)[C@@H](CCC(=O)O)NC(=O)[C@@H](NC(=O)[C@H](Cc1ccccc1)NC(=O)[C@H](CCC(=O)O)NC(=O)[C@](C)(Cc1ccccc1)NC(=O)[C@H](CCC(N)=O)NC(=O)[C@H](C)NC(=O)[C@H](CCCCNC(=O)COCCOCCNC(=O)COCCOCCNC(=O)CC[C@H](NC(=O)CCCCCCCCCCCCC(=O)O)C(=O)O)NC(=O)[C@H](CCCN)NC(=O)[C@H](CC(=O)O)NC(=O)[C@H](CC(C)C)NC(=O)[C@](C)(CC(C)C)NC(=O)[C@@H](NC(=O)[C@H](CO)NC(=O)[C@H](Cc1ccncc1)NC(=O)[C@H](CC(=O)O)NC(=O)[C@H](CO)NC(=O)[C@@H](NC(=O)[C@](C)(Cc1ccccc1F)NC(=O)[C@@H](NC(=O)CNC(=O)[C@H](CCC(=O)O)NC(=O)C(C)(C)NC(=O)[C@@H](N)Cc1ccc(O)cc1)[C@@H](C)O)[C@@H](C)O)[C@@H](C)CC)[C@@H](C)CC)C(=O)N[C@@H](CCC(=O)O)C(=O)NCC(=O)NCC(=O)N[C@@H](CCCCNC(=O)COCCOCCNC(=O)COCCOCCNC(=O)CC[C@H](NC(=O)CCCCCCCCCCCCC(=O)O)C(=O)O)C(=O)N[C@@H](CO)C(=O)N[C@@H](CO)C(=O)NCC(=O)N[C@@H](C)C(=O)N1CCC[C@H]1C(=O)N1CCC[C@H]1C(=O)N1CCC[C@H]1C(=O)N[C@@H](CO)C(N)=O` [Example 169], in assay [1] (setting [3]), the Emax came to 96.1%. In addition, the EC50 in assay [2] (setting [4]) was over 9950 nM.

With `CC[C@H](C)[C@H](NC(=O)[C@H](CCCN)NC(=O)[C@H](CC(=O)O)NC(=O)[C@H](CC(C)C)NC(=O)[C@](C)(CC(C)C)NC(=O)[C@@H](NC(=O)[C@H](CO)NC(=O)[C@H](CCCCNC(=O)COCCOCCNC(=O)COCCOCCNC(=O)CC[C@H](NC(=O)CCCCCCCCCCCCC(=O)O)C(=O)O)NC(=O)[C@H](CC(=O)O)NC(=O)[C@H](CO)NC(=O)[C@@H](NC(=O)[C@](C)(Cc1ccccc1F)NC(=O)[C@@H](NC(=O)CNC(=O)[C@H](CCC(=O)O)NC(=O)C(C)(C)NC(=O)[C@@H](N)Cc1ccc(O)cc1)[C@@H](C)O)[C@@H](C)O)[C@@H](C)CC)C(=O)N[C@@H](C)C(=O)N[C@@H](CCC(N)=O)C(=O)NC(C)(C)C(=O)N[C@@H](CCC(=O)O)C(=O)N[C@@H](Cc1ccccc1)C(=O)N[C@H](C(=O)N[C@@H](CCCCNC(=O)COCCOCCNC(=O)COCCOCCNC(=O)CC[C@H](NC(=O)CCCCCCCCCCCCC(=O)O)C(=O)O)C(=O)N[C@@](C)(Cc1ccc(O)cc1)C(=O)N[C@@H](CC(C)C)C(=O)N[C@H](C(=O)N[C@@H](CCC(=O)O)C(=O)NCC(=O)NCC(=O)N1CCC[C@H]1C(=O)N[C@@H](CO)C(=O)N[C@@H](CO)C(=O)NCC(=O)N[C@@H](C)C(=O)N1CCC[C@H]1C(=O)N1CCC[C@H]1C(=O)N1CCC[C@H]1C(=O)N[C@@H](CO)C(N)=O)[C@@H](C)CC)[C@@H](C)CC` [Example 106], the Emax in assay [1] (HEK293, read-out: hGIPR Emax, % ± SEM, percent of maximal response to GIP(1-42)NH2, 37° C., 0.1% bovine casein, arithmetic mean) turned out to be 98.7 ± 3.32%. Also, the EC50 in assay [1] (hGIPR EC50, nM (SEM, n), incubated at 37° C.) is 0.0385 nM; in assay [2] (hGCGR EC50, nM (SEM, n), cAMP, incubated at 37° C., 0.1% bovine casein (no human serum albumin), geometric mean) it was over 9950 nM.

Take `CCCC[C@H](NC(=O)[C@H](CC(=O)O)NC(=O)[C@H](CO)NC(=O)[C@@H](NC(=O)[C@](C)(Cc1ccccc1F)NC(=O)[C@@H](NC(=O)CNC(=O)[C@H](CCC(=O)O)NC(=O)C(C)(C)NC(=O)[C@@H](N)Cc1ccc(O)cc1)[C@@H](C)O)[C@@H](C)O)C(=O)N[C@@H](CO)C(=O)N[C@H](C(=O)N[C@@](C)(CC(C)C)C(=O)N[C@@H](CC(C)C)C(=O)N[C@@H](CC(=O)O)C(=O)N[C@@H](CCCN)C(=O)N[C@@H](CCCCNC(=O)COCCOCCNC(=O)COCCOCCNC(=O)CC[C@H](NC(=O)CCCCCCCCCOc1ccc(C(=O)O)cc1)C(=O)O)C(=O)N[C@@H](C)C(=O)N[C@@H](CCC(N)=O)C(=O)NC(C)(C)C(=O)N[C@@H](CCC(=O)O)C(=O)N[C@@H](Cc1ccccc1)C(=O)N[C@H](C(=O)N[C@H](CCC(=O)O)C(=O)N[C@@](C)(Cc1ccc(O)cc1)C(=O)N[C@@H](CC(C)C)C(=O)N[C@H](C(=O)N[C@@H](CCCCNC(=O)COCCOCCNC(=O)COCCOCCNC(=O)CC[C@H](NC(=O)CCCCCCCCCOc1ccc(C(=O)O)cc1)C(=O)O)C(=O)NCC(=O)NCC(=O)N1CCC[C@H]1C(=O)N[C@@H](CO)C(=O)N[C@@H](CO)C(=O)NCC(=O)N[C@@H](C)C(=O)N1CCC[C@H]1C(=O)N1CCC[C@H]1C(=O)N1CCC[C@H]1C(=O)N[C@@H](CO)C(N)=O)[C@@H](C)CC)[C@@H](C)CC)[C@@H](C)CC` [Example 328]: the Emax in assay [1] (HEK293, read-out: hGIPR Emax, % ± SEM, cAMP, 37° C., 0.1% bovine casein and 1.0% human serum albumin, percent of maximal response to GIP(1-42)NH2) amounted to 85.5%. In addition, the EC50 in assay [2] (setting [5]) was over 9950 nM; in assay [2] (hGCGR EC50, nM (SEM, n), cAMP, 37° C., 0.1% bovine casein and 1.0% human serum albumin, geometric mean (SEM, n)), over 9950 nM.

`CC[C@H](C)[C@H](NC(=O)[C@H](CC(C)C)NC(=O)[C@](C)(Cc1ccc(O)cc1)NC(=O)[C@@H](CCC(=O)O)NC(=O)[C@@H](NC(=O)[C@H](Cc1ccccc1)NC(=O)[C@H](CCC(=O)O)NC(=O)C1(NC(=O)[C@H](CCC(N)=O)NC(=O)[C@H](C)NC(=O)[C@H](CCCCNC(=O)COCCOCCNC(=O)COCCOCCNC(=O)CC[C@H](NC(=O)CCCCCCCCCCCCC(=O)O)C(=O)O)NC(=O)[C@H](CCCN)NC(=O)[C@H](CC(=O)O)NC(=O)[C@H](CC(C)C)NC(=O)[C@](C)(CC(C)C)NC(=O)[C@@H](NC(=O)[C@H](CO)NC(=O)[C@H](Cc2ccncc2)NC(=O)[C@H](CC(=O)O)NC(=O)[C@H](CO)NC(=O)[C@@H](NC(=O)[C@](C)(Cc2ccccc2F)NC(=O)[C@@H](NC(=O)CNC(=O)[C@H](CCC(=O)O)NC(=O)C(C)(C)NC(=O)[C@@H](N)Cc2ccc(O)cc2)[C@@H](C)O)[C@@H](C)O)[C@@H](C)CC)CCCCC1)[C@@H](C)CC)C(=O)N[C@@H](CCC(=O)O)C(=O)NCC(=O)NCC(=O)N[C@@H](CCCCNC(=O)COCCOCCNC(=O)COCCOCCNC(=O)CC[C@H](NC(=O)CCCCCCCCCCCCC(=O)O)C(=O)O)C(=O)N[C@@H](CO)C(=O)N[C@@H](CO)C(=O)NCC(=O)N[C@@H](C)C(=O)N1CCC[C@H]1C(=O)N1CCC[C@H]1C(=O)N1CCC[C@H]1C(=O)N[C@@H](CO)C(N)=O` [Example 171]: in assay [1] (setting [3]), the Emax was 95.3%. Further, the EC50 in assay [1] (incubated at 37° C., read-out: hGIPR EC50, nM (SEM, n)) is 0.0389 nM; in assay [2] (setting [4]) it was over 9950 nM.

On to `CC[C@H](C)[C@H](NC(=O)[C@H](CCCN)NC(=O)[C@H](CC(=O)O)NC(=O)[C@H](CC(C)C)NC(=O)[C@](C)(CC(C)C)NC(=O)[C@@H](NC(=O)[C@H](CO)NC(=O)[C@H](Cc1ccncc1)NC(=O)[C@H](CC(=O)O)NC(=O)[C@H](CO)NC(=O)[C@@H](NC(=O)[C@](C)(Cc1ccccc1F)NC(=O)[C@@H](NC(=O)CNC(=O)[C@H](CCC(=O)O)NC(=O)C(C)(C)NC(=O)[C@@H](N)Cc1ccc(O)cc1)[C@@H](C)O)[C@@H](C)O)[C@@H](C)CC)C(=O)N[C@@H](C)C(=O)N[C@@H](CCC(N)=O)C(=O)NC(C)(C)C(=O)N[C@@H](CCCCNC(=O)COCCOCCNC(=O)COCCOCCNC(=O)CC[C@H](NC(=O)CCCCCCCCCOc1ccc(C(=O)O)cc1)C(=O)O)C(=O)N[C@@H](Cc1ccccc1)C(=O)N[C@H](C(=O)N[C@H](CCC(=O)O)C(=O)N[C@@](C)(Cc1ccc(O)cc1)C(=O)N[C@@H](CC(C)C)C(=O)N[C@H](C(=O)N[C@@H](CCC(=O)O)C(=O)NCC(=O)NCC(=O)N1CCC[C@H]1C(=O)N[C@@H](CO)C(=O)N[C@@H](CO)C(=O)NCC(=O)N[C@@H](C)C(=O)N1CCC[C@H]1C(=O)N1CCC[C@H]1C(=O)N1CCC[C@H]1C(=O)N[C@@H](CO)C(=O)N[C@@H](CCCCNC(=O)COCCOCCNC(=O)COCCOCCNC(=O)CC[C@H](NC(=O)CCCCCCCCCOc1ccc(C(=O)O)cc1)C(=O)O)C(N)=O)[C@@H](C)CC)[C@@H](C)CC` [Example 276], for which, in assay [1] (HEK293, read-out: hGIPR Emax, % ± SEM, 0.1% bovine casein and 1.0% human serum albumin, 37° C., percent of maximal response to GIP(1-42)NH2), the Emax was determined as 91.4%. Also, the EC50 in assay [1] (hGIPR EC50, nM (SEM, n), 37° C.) was 0.0134 nM; in assay [2] (hGCGR EC50, nM (SEM, n), 0.1% bovine casein and 1.0% human serum albumin, 37° C., geometric mean) it was over 9950 nM; in assay [2] (setting [5]), over 9950 nM.
